From PubChem BioAssay AID256 (DTP/NCI, 2004) come the findings set out here.

Molecules are shown by their SMILES. Values joined by “and” are separate entries in the source; they are usually repeats but may differ in a detail not shown here. Identical values can stand only once. Inconclusive results and toxic doses are left out.

For the assay, the system named is CD2F1 mice, L1210 leukemia ip, survival T/C. Put plainly: NCI In Vivo Anticancer Drug Screen. Data for tumor model L1210 Leukemia (intraperitoneal) in CD2F1 (CDF1) mice. The note with it: higher = longer survival. In a few lines: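 Implant tumor; dose compound or vehicle; measure endpoint in both groups; report treated divided by control.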
Where [1] appears, read: endpoint: mean survival time, dose: 100.0 mg/kg/injection, schedule: Q04DX003 (ip), vehicle: saline with Tween-80.
Setting [2] is: endpoint: mean survival time, dose: 200.0 mg/kg/injection, schedule: Q04DX003 (ip), vehicle: saline with Tween-80.
Setting [3] is: endpoint: mean survival time, dose: 100.0 mg/kg/injection, schedule: Q01DX009 (ip), vehicle: saline with Tween-80.
[4] abbreviates: endpoint: mean survival time, dose: 200.0 mg/kg/injection, schedule: Q01DX009 (ip), vehicle: saline with Tween-80.
The mark [5] stands for this setting: endpoint: mean survival time, dose: 50.0 mg/kg/injection, schedule: Q01DX009 (ip), vehicle: saline with Tween-80.

Turning to `CN(C)N=Nc1ccc([N+](=O)[O-])cc1C(N)=O`, the T/C runs as follows: (endpoint: mean survival time, dose: 18.8 mg/kg/injection, schedule: Q01DX009 (ip), vehicle: Klucel (hydroxypropylcellulose) (HPC)) 95 % of control and 101 % of control; (endpoint: mean survival time, dose: 37.5 mg/kg/injection, schedule: Q01DX009 (ip), vehicle: Klucel (hydroxypropylcellulose) (HPC)) 96 % of control and 110 % of control; (endpoint: mean survival time, dose: 75.0 mg/kg/injection, schedule: Q01DX009 (ip), vehicle: Klucel (hydroxypropylcellulose) (HPC)) 101 % of control and 110 % of control; (endpoint: mean survival time, dose: 300.0 mg/kg/injection, schedule: Q01DX009 (ip), vehicle: Klucel (hydroxypropylcellulose) (HPC)) 89 % of control.
On to `COC(=O)C1(C)CCCC2(C)C1CCC13C2CC1C1(C(C)C)OC31` (centres undefined), for which the T/C was 89 % of control under setting [1] and 92 % of control under setting [2].
For the compound `CSc1nc(Cl)c2cc(Cl)[nH]c2n1`, the T/C reads like this: (endpoint: median survival time, dose: 1.5 mg/kg/injection, schedule: Q01DX009 (ip), vehicle: saline with Tween-80) 104 % of control; (endpoint: median survival time, dose: 3.0 mg/kg/injection, schedule: Q01DX009 (ip), vehicle: saline with Tween-80) 107 % of control; (endpoint: median survival time, dose: 6.0 mg/kg/injection, schedule: Q01DX009 (ip), vehicle: saline with Tween-80) 110 % of control; (endpoint: median survival time, dose: 50.0 mg/kg/injection, schedule: Q01DX005 (ip), vehicle: saline with Tween-80) 100 % of control; (endpoint: median survival time, dose: 100.0 mg/kg/injection, schedule: Q01DX005 (ip), vehicle: saline with Tween-80) 101 % of control.
For the compound `O=C(NO)c1cc(O)c(O)c(O)c1`, the T/C (endpoint: mean survival time, dose: 100.0 mg/kg/injection, schedule: Q01DX009 (ip), vehicle: water) is 117 % of control; the T/C (endpoint: mean survival time, dose: 200.0 mg/kg/injection, schedule: Q01DX009 (ip), vehicle: distilled water + Tween-80) was 154 % of control; the T/C (endpoint: mean survival time, dose: 200.0 mg/kg/injection, schedule: Q01DX009 (ip), vehicle: water) is 156 % of control; the T/C (endpoint: mean survival time, dose: 400.0 mg/kg/injection, schedule: Q01DX009 (ip), vehicle: distilled water + Tween-80) was 104 % of control; the T/C (endpoint: mean survival time, dose: 400.0 mg/kg/injection, schedule: Q01DX009 (ip), vehicle: water) is 100 % of control; the T/C (endpoint: mean survival time, dose: 800.0 mg/kg/injection, schedule: Q01DX009 (ip), vehicle: distilled water + Tween-80) was 116 % of control. The T/C was 107 % of control (endpoint: median survival time, dose: 25.0 mg/kg/injection, schedule: Q01DX009 (ip), vehicle: distilled water + Tween-80); 120 % of control (endpoint: median survival time, dose: 50.0 mg/kg/injection, schedule: Q01DX009 (ip), vehicle: distilled water + Tween-80); 158 % of control and 162 % of control (endpoint: median survival time, dose: 200.0 mg/kg/injection, schedule: Q01DX009 (ip), vehicle: distilled water + Tween-80); 90 % of control (endpoint: median survival time, dose: 400.0 mg/kg/injection, schedule: Q01DX009 (ip), vehicle: distilled water + Tween-80).
Take `C1CC(N2CC2)CCC1N1CC1` (centres undefined): the T/C is 169 % of control (endpoint: mean survival time, dose: 6.0 mg/kg/injection, schedule: Q04DX003 (ip), vehicle: saline); 124 % of control (endpoint: mean survival time, dose: 9.0 mg/kg/injection, schedule: Q04DX003 (ip), vehicle: saline); 110 % of control (endpoint: mean survival time, dose: 13.0 mg/kg/injection, schedule: Q04DX003 (ip), vehicle: saline); 86 % of control (endpoint: mean survival time, dose: 20.0 mg/kg/injection, schedule: Q04DX003 (ip), vehicle: saline).
For the compound `CCOC(=O)CC(C)(C)NCc1ccccc1`, the T/C is 91 % of control (endpoint: mean survival time, dose: 25.0 mg/kg/injection, schedule: Q01DX009 (ip), vehicle: Klucel (hydroxypropylcellulose) (HPC)); 97 % of control (endpoint: mean survival time, dose: 50.0 mg/kg/injection, schedule: Q01DX009 (ip), vehicle: Klucel (hydroxypropylcellulose) (HPC)); 91 % of control (endpoint: mean survival time, dose: 100.0 mg/kg/injection, schedule: Q01DX009 (ip), vehicle: Klucel (hydroxypropylcellulose) (HPC)).
Take `Cc1ccccc1CS`: the T/C runs as follows: under setting [3], 93 % of control; under setting [1], 103 % of control; under setting [4], 94 % of control; under setting [2], 100 % of control; (endpoint: mean survival time, dose: 400.0 mg/kg/injection, schedule: Q04DX003 (ip), vehicle: saline with Tween-80) 104 % of control.
Regarding `CCCCOC(=O)C=O`, the T/C reads like this: (endpoint: mean survival time, dose: 12.5 mg/kg/injection, schedule: Q01DX009 (ip), vehicle: saline with Tween-80) 101 % of control; (endpoint: mean survival time, dose: 25.0 mg/kg/injection, schedule: Q01DX009 (ip), vehicle: saline with Tween-80) 105 % of control; under setting [5], 99 % of control.
Turning to `CNNCc1ccc(C(=O)NC(C)C)cc1`, the T/C reads like this: (endpoint: mean survival time, dose: 3.13 mg/kg/injection, schedule: Q01DX010 (ip), vehicle: saline) 96 % of control; (endpoint: mean survival time, dose: 6.25 mg/kg/injection, schedule: Q01DX010 (ip), vehicle: saline) 106 % of control; (endpoint: mean survival time, dose: 6.25 mg/kg/injection, schedule: Q01DX010 (sc), vehicle: saline) 103 % of control; (endpoint: mean survival time, dose: 12.5 mg/kg/injection, schedule: Q01DX010 (ip), vehicle: saline) 108 % of control; (endpoint: mean survival time, dose: 25.0 mg/kg/injection, schedule: Q01DX010 (oral), vehicle: saline) 120 % of control; (endpoint: mean survival time, dose: 25.0 mg/kg/injection, schedule: Q01DX010 (sc), vehicle: saline) 116 % of control. Also, the T/C was 110 % of control (endpoint: mean survival time, dose: 29.7 mg/kg/injection, schedule: Q01DX009 (ip), vehicle: saline); 100 % of control (endpoint: mean survival time, dose: 38.0 mg/kg/injection, schedule: Q03DX004 (ip), vehicle: saline); 120 % of control (endpoint: mean survival time, dose: 50.0 mg/kg/injection, schedule: Q01DX010 (sc), vehicle: saline); 112 % of control (endpoint: mean survival time, dose: 100.0 mg/kg/injection, schedule: Q04DX003 (ip), vehicle: saline); 159 % of control and 170 % of control (endpoint: mean survival time, dose: 133.0 mg/kg/injection, schedule: Q01DX009 (ip), vehicle: saline); 108 % of control (endpoint: mean survival time, dose: 150.0 mg/kg/injection, schedule: Q03DX004 (ip), vehicle: saline). Moreover, the T/C (endpoint: mean survival time, dose: 200.0 mg/kg/injection, schedule: Q01DX007 (ip), vehicle: saline) is 179 % of control.
Consider `CC1NC(C)SC(C)S1` (centres undefined), for which the T/C by setting is: under setting [1], 101 % of control; under setting [2], 98 % of control.
On to `O=C(SCN1CCCCC1)c1ccccc1`, for which the T/C was 98 % of control under setting [5], 103 % of control under setting [3], 97 % of control under setting [1] and 95 % of control under setting [2].
For the compound `C[C@]12C=CC(=O)C=C1CC[C@@H]1[C@@H]2[C@@H](O)C[C@@]2(C)[C@H]1CC[C@]2(O)C(=O)CO`, the T/C (endpoint: mean survival time, dose: 12.5 mg/kg/injection, schedule: Q01DX010 (sc), vehicle: steriod suspending solution) was 108 % of control; the T/C (endpoint: mean survival time, dose: 25.0 mg/kg/injection, schedule: Q01DX009 (sc), vehicle: steriod suspending solution) is 106 % of control and 109 % of control; the T/C (endpoint: mean survival time, dose: 25.0 mg/kg/injection, schedule: Q01DX010 (sc), vehicle: steriod suspending solution) is 108 % of control; the T/C (endpoint: mean survival time, dose: 50.0 mg/kg/injection, schedule: Q01DX009 (sc), vehicle: steriod suspending solution) was 113 % of control and 106 % of control; the T/C (endpoint: mean survival time, dose: 50.0 mg/kg/injection, schedule: Q01DX010 (sc), vehicle: steriod suspending solution) is 112 % of control; the T/C (endpoint: mean survival time, dose: 100.0 mg/kg/injection, schedule: Q01DX009 (sc), vehicle: steriod suspending solution) was 116 % of control. The T/C is 108 % of control (endpoint: mean survival time, dose: 100.0 mg/kg/injection, schedule: Q01DX010 (sc), vehicle: steriod suspending solution); 113 % of control and 116 % of control (endpoint: mean survival time, dose: 200.0 mg/kg/injection, schedule: Q01DX009 (sc), vehicle: steriod suspending solution).
With `O=Cc1ccc(C(=O)O)cc1`, the T/C under setting [3] was 95 % of control; the T/C under setting [4] was 98 % of control; the T/C (endpoint: mean survival time, dose: 400.0 mg/kg/injection, schedule: Q01DX009 (ip), vehicle: saline with Tween-80) was 101 % of control.
For `CC(C)CN(CC(C)C)C(=S)[S-].CC(C)CN(CC(C)C)C(=S)[S-].[Zn]`, the T/C (endpoint: mean survival time, dose: 75.0 mg/kg/injection, schedule: Q04DX003 (ip), vehicle: saline) is 91 % of control; the T/C (endpoint: mean survival time, dose: 150.0 mg/kg/injection, schedule: Q04DX003 (ip), vehicle: saline) is 89 % of control; the T/C (endpoint: mean survival time, dose: 300.0 mg/kg/injection, schedule: Q04DX003 (ip), vehicle: saline) was 95 % of control.
As for `CNC1=C(C)C(=O)C2=C(C1=O)C(COC(N)=O)C1(OC)C3NC3CN21` (centres undefined), the T/C runs as follows: (endpoint: mean survival time, dose: 1.5 mg/kg/injection, schedule: Q01DX001 (ip), vehicle: water) 102 % of control; (endpoint: mean survival time, dose: 3.0 mg/kg/injection, schedule: Q01DX001 (ip), vehicle: water) 100 % of control; (endpoint: mean survival time, dose: 6.0 mg/kg/injection, schedule: Q01DX001 (ip), vehicle: water) 108 % of control; (endpoint: mean survival time, dose: 12.0 mg/kg/injection, schedule: Q01DX001 (ip), vehicle: water) 118 % of control; (endpoint: mean survival time, dose: 24.0 mg/kg/injection, schedule: Q01DX001 (ip), vehicle: water) 124 % of control.
